From patent US20240166635A1, “AMINOHETEROARYL KINASE INHIBITORS” (Anrui Biomedical Technology (Guangzhou) Co.,Ltd., priority 2020, published 2024)

Assays:
Type in all cases: biochemical
[1] = target: CDK6/CyclinD1 (Homo sapiens (Human), UniProt Q00534); experiment: CDK6/CyclinD1 kinase inhibitory activity (Caliper mobility shift); details: read-out: CDK6/Cyclin D1 IC50
[2] = target: CDK1/CyclinB (Homo sapiens (Human), UniProt P06493); experiment: CDK1/CyclinB kinase inhibitory activity (Caliper mobility shift); details: read-out: CDK1/Cyclin B1 IC50
[3] = target: CDK9/CyclinT1 (Homo sapiens (Human), UniProt P50750); experiment: CDK9/CyclinT1 kinase inhibitory activity (Caliper mobility shift); details: read-out: CDK9/Cyclin T1 IC50
[4] = target: CDK4/Cyclin D1 (Homo sapiens (Human), UniProt P11802); experiment: CDK4/CyclinD1 kinase inhibitory activity (Caliper mobility shift)
[5] = target: CDK7/CyclinH/MAT1 (Homo sapiens (Human), UniProt P50613); experiment: CDK7/CyclinH/MAT1 kinase inhibitory activity (Caliper mobility shift)
[6] = target: CDK2/CyclinE1 (Homo sapiens (Human), UniProt P24941); experiment: CDK2/CyclinE1 kinase inhibitory activity (Caliper mobility shift); details: read-out: CDK2/Cyclin El IC50

Chain of CDK9/CyclinT1 (P50750 whole entry): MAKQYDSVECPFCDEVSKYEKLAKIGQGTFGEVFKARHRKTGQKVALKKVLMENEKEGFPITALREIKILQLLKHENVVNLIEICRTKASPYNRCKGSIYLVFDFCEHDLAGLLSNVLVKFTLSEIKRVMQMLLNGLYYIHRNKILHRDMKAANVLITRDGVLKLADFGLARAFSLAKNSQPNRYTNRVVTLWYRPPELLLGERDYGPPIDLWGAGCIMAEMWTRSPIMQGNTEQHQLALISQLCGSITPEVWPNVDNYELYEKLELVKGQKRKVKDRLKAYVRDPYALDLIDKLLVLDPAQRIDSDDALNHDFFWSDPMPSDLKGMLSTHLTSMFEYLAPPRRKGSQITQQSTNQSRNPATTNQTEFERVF
Chain of CDK9/CyclinT1 (O60563 whole entry partner): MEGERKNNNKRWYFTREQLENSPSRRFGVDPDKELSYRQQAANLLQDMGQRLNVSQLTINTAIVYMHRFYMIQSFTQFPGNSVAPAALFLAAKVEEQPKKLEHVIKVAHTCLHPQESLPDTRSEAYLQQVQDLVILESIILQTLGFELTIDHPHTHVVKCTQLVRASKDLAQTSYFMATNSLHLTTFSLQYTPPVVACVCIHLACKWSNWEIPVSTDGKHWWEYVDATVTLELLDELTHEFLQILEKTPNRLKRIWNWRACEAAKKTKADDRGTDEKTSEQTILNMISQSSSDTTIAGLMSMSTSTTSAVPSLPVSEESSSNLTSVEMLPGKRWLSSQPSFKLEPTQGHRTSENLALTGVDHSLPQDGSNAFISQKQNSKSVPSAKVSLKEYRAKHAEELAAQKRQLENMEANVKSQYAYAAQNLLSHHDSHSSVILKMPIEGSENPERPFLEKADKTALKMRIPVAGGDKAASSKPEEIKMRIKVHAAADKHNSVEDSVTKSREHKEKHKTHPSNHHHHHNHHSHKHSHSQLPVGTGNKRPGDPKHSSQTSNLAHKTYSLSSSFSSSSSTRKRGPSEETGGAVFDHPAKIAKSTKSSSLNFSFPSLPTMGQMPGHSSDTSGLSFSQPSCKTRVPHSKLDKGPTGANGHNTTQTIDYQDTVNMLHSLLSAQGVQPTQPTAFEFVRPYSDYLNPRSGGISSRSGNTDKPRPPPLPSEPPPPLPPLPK
Chain of CDK1/CyclinB (P06493 whole entry): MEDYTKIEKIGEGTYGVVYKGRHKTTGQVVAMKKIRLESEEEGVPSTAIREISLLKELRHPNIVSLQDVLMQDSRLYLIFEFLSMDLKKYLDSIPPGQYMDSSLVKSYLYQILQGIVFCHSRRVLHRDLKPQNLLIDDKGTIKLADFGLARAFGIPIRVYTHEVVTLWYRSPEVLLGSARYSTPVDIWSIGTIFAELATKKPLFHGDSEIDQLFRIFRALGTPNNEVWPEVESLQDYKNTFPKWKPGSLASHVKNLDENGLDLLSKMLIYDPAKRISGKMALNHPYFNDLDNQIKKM
Chain of CDK1/CyclinB (P14635 whole entry partner): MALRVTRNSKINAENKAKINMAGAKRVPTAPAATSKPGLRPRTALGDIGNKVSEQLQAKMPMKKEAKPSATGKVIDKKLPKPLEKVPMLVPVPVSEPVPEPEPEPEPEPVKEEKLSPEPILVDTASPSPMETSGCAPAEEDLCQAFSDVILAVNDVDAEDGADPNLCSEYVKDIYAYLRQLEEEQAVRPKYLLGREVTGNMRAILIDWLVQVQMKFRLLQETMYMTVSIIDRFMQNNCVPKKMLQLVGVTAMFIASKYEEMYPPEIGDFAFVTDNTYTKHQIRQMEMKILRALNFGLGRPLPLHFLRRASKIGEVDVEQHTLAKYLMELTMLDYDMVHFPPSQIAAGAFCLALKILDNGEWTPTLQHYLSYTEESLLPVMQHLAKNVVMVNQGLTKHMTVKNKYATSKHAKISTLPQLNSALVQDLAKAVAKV
Chain of CDK7/CyclinH/MAT1 (P50613 whole entry): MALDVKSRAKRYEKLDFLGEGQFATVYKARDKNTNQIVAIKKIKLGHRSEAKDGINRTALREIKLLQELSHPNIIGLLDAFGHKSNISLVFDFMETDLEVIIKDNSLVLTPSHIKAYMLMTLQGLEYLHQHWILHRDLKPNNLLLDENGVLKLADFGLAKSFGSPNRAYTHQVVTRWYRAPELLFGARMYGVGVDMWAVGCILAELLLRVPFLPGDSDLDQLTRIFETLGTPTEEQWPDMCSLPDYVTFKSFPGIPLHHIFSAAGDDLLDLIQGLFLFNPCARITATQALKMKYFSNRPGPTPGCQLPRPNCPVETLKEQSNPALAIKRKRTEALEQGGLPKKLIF
Chain of CDK7/CyclinH/MAT1 (P51946 whole entry partner): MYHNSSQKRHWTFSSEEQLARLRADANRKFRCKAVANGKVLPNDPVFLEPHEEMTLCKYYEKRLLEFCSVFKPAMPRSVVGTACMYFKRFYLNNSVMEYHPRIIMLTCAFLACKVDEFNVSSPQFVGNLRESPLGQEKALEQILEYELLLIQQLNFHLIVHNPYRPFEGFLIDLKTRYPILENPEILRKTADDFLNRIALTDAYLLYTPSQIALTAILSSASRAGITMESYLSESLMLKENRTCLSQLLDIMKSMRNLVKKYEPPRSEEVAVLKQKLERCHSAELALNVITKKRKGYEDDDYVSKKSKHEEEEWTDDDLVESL
Chain of CDK7/CyclinH/MAT1 (P51948 whole entry partner): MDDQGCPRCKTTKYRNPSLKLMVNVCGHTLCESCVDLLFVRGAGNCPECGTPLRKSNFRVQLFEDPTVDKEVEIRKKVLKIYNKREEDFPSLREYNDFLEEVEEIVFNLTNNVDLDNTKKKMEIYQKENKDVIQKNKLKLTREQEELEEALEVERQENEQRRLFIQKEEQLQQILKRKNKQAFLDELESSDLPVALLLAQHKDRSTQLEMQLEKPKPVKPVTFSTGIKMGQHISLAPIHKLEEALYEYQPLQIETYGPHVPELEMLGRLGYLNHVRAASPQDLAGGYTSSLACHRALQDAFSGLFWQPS
Chain of CDK4/Cyclin D1 (P11802 whole entry): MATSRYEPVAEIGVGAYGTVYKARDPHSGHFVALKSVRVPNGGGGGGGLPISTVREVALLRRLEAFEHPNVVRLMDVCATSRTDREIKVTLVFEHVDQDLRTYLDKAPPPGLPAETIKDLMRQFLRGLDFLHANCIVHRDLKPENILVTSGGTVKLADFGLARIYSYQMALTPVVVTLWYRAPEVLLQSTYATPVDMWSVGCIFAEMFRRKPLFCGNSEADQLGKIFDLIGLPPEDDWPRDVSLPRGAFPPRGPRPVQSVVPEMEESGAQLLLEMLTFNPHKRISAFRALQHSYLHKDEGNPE
Chain of CDK4/Cyclin D1 (P24385 whole entry partner): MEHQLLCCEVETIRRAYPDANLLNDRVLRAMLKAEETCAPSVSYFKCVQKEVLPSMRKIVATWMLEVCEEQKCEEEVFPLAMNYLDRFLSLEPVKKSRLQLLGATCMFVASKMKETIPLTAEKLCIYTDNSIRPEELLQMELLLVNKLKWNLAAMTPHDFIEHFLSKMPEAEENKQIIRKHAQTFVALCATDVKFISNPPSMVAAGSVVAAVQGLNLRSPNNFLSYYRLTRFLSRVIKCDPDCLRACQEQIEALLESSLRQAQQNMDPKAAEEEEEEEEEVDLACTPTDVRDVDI
Chain of CDK6/CyclinD1 (Q00534 whole entry): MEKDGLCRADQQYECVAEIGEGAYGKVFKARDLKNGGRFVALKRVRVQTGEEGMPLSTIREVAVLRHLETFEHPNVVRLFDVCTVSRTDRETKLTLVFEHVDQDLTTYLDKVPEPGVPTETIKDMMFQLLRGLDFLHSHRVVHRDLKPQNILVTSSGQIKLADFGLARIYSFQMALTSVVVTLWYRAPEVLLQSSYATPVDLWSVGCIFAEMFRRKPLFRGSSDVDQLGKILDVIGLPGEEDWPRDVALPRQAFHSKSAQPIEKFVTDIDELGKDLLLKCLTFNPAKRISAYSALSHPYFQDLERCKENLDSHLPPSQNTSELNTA
Chain of CDK6/CyclinD1 (P24385 whole entry partner): as the sequence (P24385 whole entry partner) above

SMILES | IC50 [1] [nM] | IC50 [2] [nM] | IC50 [3] [nM] | IC50 [4] [nM] | IC50 [5] [nM] | IC50 [6] [nM]
CC1(COc2nc(NC3CCN(S(C)(=O)=O)CC3)ncc2C#N)CCCC1 [Example 54] | < 10 | 10 to 100 | 100 to 1000 | < 10 | 100 to 1000 | < 10
CS(=O)(=O)N1CCC(Nc2ncc(C(F)(F)F)c(OC3CCC3)n2)CC1 [Example 126] | 10 to 100 | 10 to 100 | 100 to 1000 | 10 to 100 | 100 to 1000 | < 10
COCCS(=O)(=O)N1CCC(Nc2ncc(C#N)c(OCC3(C)CCCC3)n2)CC1 [Example 58] | 10 to 100 | 10 to 100 | 100 to 1000 | < 10 | 100 to 1000 | < 10
Cn1cc(S(=O)(=O)N2CCC(Nc3ncc(C#N)c(OCC4(C)CCCC4)n3)CC2)cn1 [Example 62] | 10 to 100 | < 10 | 100 to 1000 | < 10 | 100 to 1000 | < 10
CNS(=O)(=O)N1CCC(Nc2ncc(C(F)(F)F)c(OC3CCCCCC3O)n2)CC1 (single isomer, unassigned) [Example 123b] | 10 to 100 | 10 to 100 | 100 to 1000 | 10 to 100 | 100 to 1000 | < 10
Cn1cc(S(=O)(=O)N2CCC(Nc3ncc(C#N)c(OC4CC5(CCC5)C4)n3)CC2)cn1 [Example 59] | 10 to 100 | 10 to 100 | 100 to 1000 | < 10 | 100 to 1000 | < 10
Cn1cc(S(=O)(=O)N2CCC(Nc3ncc(C#N)c(OCC4(C)CC(F)(F)C4)n3)CC2)cn1 [Example 61] | 10 to 100 | 10 to 100 | 100 to 1000 | < 10 | 100 to 1000 | < 10
CC1(O)CCCC1Oc1nc(NC2CCN(S(=O)(=O)CC3CC3)CC2)ncc1C#N (single isomer, unassigned) [Example 38a] | < 10 | 10 to 100 | 100 to 1000 | < 10 | 10 to 100 | < 10
C[C@]1(O)COC[C@H]1Oc1nc(NC2CCN(S(C)(=O)=O)CC2)ncc1C(F)(F)F (relative stereo) [Example 104a, cis-3-methyl-4-((2-((1-(methylsulfonyl)piperidin-4-yl)amino)-5-(trifluoromethyl)pyrimidin-4-yl)oxy)tetrahydrofuran-3-ol] | 10 to 100 | 10 to 100 | 100 to 1000 | 10 to 100 | 10 to 100 | < 10
Cn1cc(S(=O)(=O)N2CCC(Nc3ncc(C#N)c(O[C@@H]4CCC(F)(F)C[C@]4(C)O)n3)CC2)cn1 (relative stereo) [Example 7a, cis-4-((4,4-difluoro-2-hydroxy-2-methylcyclohexyl)oxy)-2-((1-((1-methyl-1H-pyrazol-4-yl)sulfonyl)piperidin-4-yl)amino)pyrimidine-5-carbonitrile] | < 10 | < 10 | 100 to 1000 | < 10 | 10 to 100 | < 10
Cn1cnc(S(=O)(=O)N2CCC(Nc3ncc(C#N)c(OC4CCCC4(C)O)n3)CC2)c1 (single isomer, unassigned) [Example 50a] | < 10 | < 10 | 100 to 1000 | < 10 | 100 to 1000 | < 10
CS(=O)(=O)N1CCC(Nc2ncc(C(F)(F)F)c(OC3CCCCC3O)n2)CC1 (single isomer, unassigned) [Example 120a] | 10 to 100 | 10 to 100 | 100 to 1000 | 10 to 100 | 10 to 100 | < 10
CC1(COc2nc(NC3CCN(S(C)(=O)=O)CC3)ncc2C(F)(F)F)CCCC1 [Example 128] | 10 to 100 | 10 to 100 | 10 to 100 | < 10 | ≥ 1000 | < 10
Cn1cc(S(=O)(=O)N2CCC(Nc3ncc(Br)c(OC4CCCCC4O)n3)CC2)cn1 (single isomer, unassigned) [Example 144b] | 10 to 100 | 10 to 100 | 100 to 1000 | 10 to 100 | 100 to 1000 | < 10

The next lines start with the values.

IC50 [1] [nM] | IC50 [2] [nM] | IC50 [3] [nM] | IC50 [4] [nM] | IC50 [5] [nM] | IC50 [6] [nM] | SMILES
10 to 100 | < 10 | 10 to 100 | 10 to 100 | 100 to 1000 | < 10 | CC1(O)CCCC1Oc1nc(Nc2ccc(S(N)(=O)=O)cc2)ncc1C#N (single isomer, unassigned) [Example 23a]
100 to 1000 | 10 to 100 | 10 to 100 | < 10 | ≥ 1000 | < 10 | CC1(COc2nc(Nc3ccc(S(N)(=O)=O)cc3)ncc2C#N)CCCC1 [Example 12]
100 to 1000 | 10 to 100 | 100 to 1000 | 100 to 1000 | 100 to 1000 | < 10 | O=S(=O)(NC1CCOCC1)c1ccc(Nc2ncc(Cl)c(O[C@@H]3CCC[C@@H]3O)n2)cc1 (single isomer, unassigned) [Example 130a, cis-4-((5-chloro-4-((2-hydroxycyclopentyl)oxy)pyrimidin-2-yl)amino)-N-(tetrahydro-2H-pyran-4-yl)benzenesulfonamide]
100 to 1000 | 10 to 100 | 10 to 100 | 10 to 100 | ≥ 1000 | < 10 | Cc1cccc(-c2nc(Nc3ccc(S(N)(=O)=O)cc3)ncc2C#N)c1 [Example 94]
10 to 100 | 10 to 100 | 10 to 100 | 100 to 1000 | 100 to 1000 | < 10 | CCc1cnc(Nc2ccc(S(N)(=O)=O)cc2)nc1O[C@@H]1CCC[C@@H]1O (single isomer, unassigned) [Example 133a, cis-4-((5-ethyl-4-((2-hydroxycyclopentyl)oxy)pyrimidin-2-yl)amino)benzenesulfonamide]
100 to 1000 | 100 to 1000 | 100 to 1000 | ≥ 1000 | ≥ 1000 | < 10 | [2H]C([2H])([2H])NS(=O)(=O)c1ccc(Nc2ncc(C)c(OC3CCCC3O)n2)cc1 (single isomer, unassigned) [Example 148a]
10 to 100 | 10 to 100 | 100 to 1000 | 100 to 1000 | ≥ 1000 | < 10 | N#Cc1cnc(Nc2ccc(S(=O)(=O)NC3CCC3)cc2)nc1OC1CCC[C@H]1O (mixture of isomers) [Example 25]
10 to 100 | 10 to 100 | 100 to 1000 | 10 to 100 | 10 to 100 | < 10 | CC1(O)COCCC1Oc1nc(NC2CCN(S(C)(=O)=O)CC2)ncc1C#N (single isomer, unassigned) [Example 45a]
100 to 1000 | 10 to 100 | 100 to 1000 | 100 to 1000 | 100 to 1000 | < 10 | [2H]C([2H])([2H])NS(=O)(=O)c1ccc(Nc2ncc(C(F)(F)F)c(O[C@H]3CCOC[C@H]3O)n2)cc1 (single isomer, unassigned) [Example 100a, cis-4-((4-((3-hydroxytetrahydro-2H-pyran-4-yl)oxy)-5-(trifluoromethyl)pyrimidin-2-yl)amino)-N-(methyl-d3)benzenesulfonamide]
100 to 1000 | 100 to 1000 | 100 to 1000 | ≥ 1000 | ≥ 1000 | < 10 | Cc1cnc(Nc2ccc(S(=O)(=O)NC3CC3)cc2)nc1OC1CCCC1O (single isomer, unassigned) [Example 146a]
100 to 1000 | 10 to 100 | 100 to 1000 | 100 to 1000 | 100 to 1000 | < 10 | O=S(=O)(NC1CC1)c1ccc(Nc2ncc(C(F)(F)F)c(OC3CCCC3O)n2)cc1 (single isomer, unassigned) [Example 107a]
10 to 100 | 10 to 100 | 100 to 1000 | 10 to 100 | ≥ 1000 | < 10 | N#Cc1cnc(Nc2ccc(S(N)(=O)=O)cc2)nc1O[C@@H]1CCCC[C@@H]1O (single isomer, unassigned) [Example 2a, cis-4-((5-cyano-4-((2-hydroxycyclohexyl)oxy)pyrimidin-2-yl)amino)benzenesulfonamide]
100 to 1000 | < 10 | 10 to 100 | 10 to 100 | 100 to 1000 | < 10 | CC(C)NS(=O)(=O)c1ccc(Nc2ncc(C(F)(F)F)c(OC3CCCC3O)n2)cc1 (single isomer, unassigned) [Example 106a]
100 to 1000 | 10 to 100 | 100 to 1000 | 100 to 1000 | 100 to 1000 | < 10 | [2H]C([2H])([2H])NS(=O)(=O)c1ccc(Nc2ncc(C(F)(F)F)c(OC3CCCC3O)n2)cc1 (single isomer, unassigned) [Example 109a]
100 to 1000 | 100 to 1000 | 100 to 1000 | 100 to 1000 | ≥ 1000 | < 10 | N#Cc1cnc(Nc2ccc(S(N)(=O)=O)cc2)nc1OC1CCCC1O (single isomer, unassigned) [Example 20a]
100 to 1000 | 10 to 100 | 100 to 1000 | 10 to 100 | ≥ 1000 | < 10 | CNS(=O)(=O)c1ccc(Nc2ncc(C#N)c(N3CCCCC3)n2)cc1 [Example 91]
10 to 100 | 10 to 100 | 100 to 1000 | 100 to 1000 | 100 to 1000 | < 10 | CNS(=O)(=O)c1ccc(Nc2ncc(Br)c(OC3CCCC3O)n2)cc1 (single isomer, unassigned) [Example 142a]
